Measurements reported in ChEMBL document CHEMBL1201862, “PubChem BioAssay data set” (2004).
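Values below derive from 48-hour exposures of cells grown in 96-well plates, with endpoints linearly interpolated between the two concentrations bracketing the appropriate inhibition level. GI50 marks 50% less growth.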 Activity calls are given as the source filed them. No stated cut-off is given here; in the data, active = GI50 up to about 1.1 µM and inactive = higher.

Experiments:
Assay in all cases: inhibition of tumour cell growth, NCI panel, 48 h
OVCAR-8 = tested on: OVCAR-8
MDA-N = tested on: MDA-N
DU-145 = tested on: DU-145
Malme-3M = tested on: Malme-3M
COLO 205 = tested on: COLO 205
OVCAR-4 = tested on: OVCAR-4
NCI-H460 = tested on: NCI-H460
UACC-257 = tested on: UACC-257
SW-620 = tested on: SW-620
SK-MEL-28 = tested on: SK-MEL-28
SNB-75 = tested on: SNB-75
K562 = tested on: K562
NCI-H522 = tested on: NCI-H522
HT-29 = tested on: HT-29
RPMI-8226 = tested on: RPMI-8226
T47D = tested on: T47D
M14 = tested on: M14
SN12C = tested on: SN12C
MDA-MB-231 = tested on: MDA-MB-231
SNB-19 = tested on: SNB-19
HOP-92 = tested on: HOP-92
SK-OV-3 = tested on: SK-OV-3
HCT-15 = tested on: HCT-15
RXF 393 = tested on: RXF 393
U-251 = tested on: U-251
MOLT-4 = tested on: MOLT-4
SF-268 = tested on: SF-268
ACHN = tested on: ACHN
IGROV-1 = tested on: IGROV-1
LOX IMVI = tested on: LOX IMVI
MDA-MB-435 = tested on: MDA-MB-435
OVCAR-3 = tested on: OVCAR-3
SF-295 = tested on: SF-295
UACC-62 = tested on: UACC-62
NCI-H226 = tested on: NCI-H226
MCF7 = tested on: MCF7
CCRF-CEM = tested on: CCRF-CEM
SK-MEL-5 = tested on: SK-MEL-5
UO-31 = tested on: UO-31
NCI-H23 = tested on: NCI-H23
EKVX = tested on: EKVX
HOP-62 = tested on: HOP-62
PC-3 = tested on: PC-3
KM12 = tested on: KM12
SR = tested on: SR
TK-10 = tested on: TK-10
786-0 = tested on: 786-0
A549 = tested on: A549
SK-MEL-2 = tested on: SK-MEL-2
HCT-116 = tested on: HCT-116
OVCAR-5 = tested on: OVCAR-5
NCI/ADR-RES = tested on: NCI/ADR-RES
HCC 2998 = tested on: HCC 2998
SF-539 = tested on: SF-539
Hs-578T = tested on: Hs-578T
CAKI-1 = tested on: CAKI-1
HL-60 = tested on: HL-60
A498 = tested on: A498

In the case of `C=CC1(c2ccc(-c3ccccc3)cc2)OCCO1`, the GI50 (OVCAR-8) is reported as > 100 µM (inactive), the GI50 (MDA-N) is reported as 50.9 µM (inactive) and the GI50 (DU-145) is reported as > 100 µM (inactive). For the same compound, the GI50 (Malme-3M) was 42.8 µM (inactive), the GI50 (COLO 205) was 31.3 µM (inactive) and the GI50 (OVCAR-4) was 79.4 µM (inactive). For the same compound, the GI50 (NCI-H460) was > 100 µM (inactive), the GI50 (UACC-257) was 78.9 µM (inactive) and the GI50 (SW-620) was 31.2 µM (inactive). The GI50 (SK-MEL-28) was > 100 µM (inactive), the GI50 (SNB-75) was 39.1 µM (inactive) and the GI50 (K562) was 22.9 µM (inactive). For the same compound, the GI50 (NCI-H522) was 42 µM (inactive), the GI50 (HT-29) was 28.2 µM (inactive) and the GI50 (RPMI-8226) was > 100 µM (inactive). For the same compound, the GI50 (T47D) was 51.2 µM (inactive), the GI50 (M14) was 59.7 µM (inactive) and the GI50 (SN12C) was 76.2 µM (inactive). For the same compound, the GI50 (MDA-MB-231) was > 100 µM (inactive), the GI50 (SNB-19) was 25.8 µM (inactive) and the GI50 (HOP-92) was 34.8 µM (inactive). For the same compound, the GI50 (SK-OV-3) was > 100 µM (inactive), the GI50 (HCT-15) was 29.5 µM and the GI50 (RXF 393) was 39.4 µM (inactive). For the same compound, the GI50 (U-251) was 54.8 µM (inactive), the GI50 (MOLT-4) was 40.6 µM (inactive) and the GI50 (SF-268) was > 100 µM (inactive). For the same compound, the GI50 (ACHN) was > 100 µM (inactive), the GI50 (IGROV-1) was > 100 µM (inactive) and the GI50 (LOX IMVI) was 58.9 µM (inactive). For the same compound, the GI50 (MDA-MB-435) was 61.2 µM (inactive), the GI50 (OVCAR-3) was 83.4 µM (inactive) and the GI50 (SF-295) was > 100 µM (inactive). For the same compound, the GI50 (UACC-62) was 26.1 µM (inactive), the GI50 (NCI-H226) was 22.9 µM (inactive) and the GI50 (MCF7) was 54.6 µM (inactive). For the same compound, the GI50 (CCRF-CEM) was 11.9 µM (inactive), the GI50 (SK-MEL-5) was 35 µM (inactive) and the GI50 (UO-31) was > 100 µM (inactive). For the same compound, the GI50 (NCI-H23) was 34.7 µM (inactive), the GI50 (EKVX) was 49.2 µM (inactive) and the GI50 (HOP-62) was > 100 µM (inactive). For the same compound, the GI50 (PC-3) was 35 µM (inactive), the GI50 (KM12) was 41.2 µM (inactive) and the GI50 (SR) was 45.9 µM (inactive). For the same compound, the GI50 (TK-10) was 89.1 µM (inactive), the GI50 (786-0) was 46.8 µM (inactive) and the GI50 (A549) was 73.8 µM (inactive). For the same compound, the GI50 (SK-MEL-2) was 16.6 µM (inactive), the GI50 (HCT-116) was 47.5 µM (inactive) and the GI50 (OVCAR-5) was 64.4 µM (inactive). For the same compound, the GI50 (NCI/ADR-RES) was 65.6 µM (inactive), the GI50 (HCC 2998) was 63.7 µM (inactive) and the GI50 (SF-539) was > 100 µM (inactive). The GI50 (Hs-578T) was 23.4 µM (inactive).
With `CC(=O)OCC1OC(n2c3c(c(-c4ccco4)c(C#N)c2=S)CCCC3)C(OC(C)=O)C(OC(C)=O)C1OC(C)=O` (stereo not drawn) the GI50 (OVCAR-8) was 31.6 µM (inactive), the GI50 (MDA-N) was > 31.6 µM (inactive) and the GI50 (DU-145) was > 31.6 µM (inactive). For the same compound, the GI50 (Malme-3M) was > 31.6 µM (inactive), the GI50 (COLO 205) was > 31.6 µM (inactive) and the GI50 (OVCAR-4) was 9.16 µM (inactive). For the same compound, the GI50 (NCI-H460) was 22.9 µM (inactive), the GI50 (UACC-257) was > 31.6 µM (inactive) and the GI50 (SW-620) was > 100 µM (inactive). The GI50 (SK-MEL-28) was > 31.6 µM (inactive), the GI50 (SNB-75) was 8.2 µM (inactive) and the GI50 (K562) was > 10 µM (inactive). The GI50 (NCI-H522) was 16.3 µM (inactive), the GI50 (HT-29) was > 31.6 µM (inactive) and the GI50 (RPMI-8226) was > 100 µM (inactive). The GI50 (T47D) was > 31.6 µM (inactive), the GI50 (M14) was > 100 µM (inactive) and the GI50 (SN12C) was > 31.6 µM (inactive). For the same compound, the GI50 (MDA-MB-231) was 29.6 µM (inactive), the GI50 (SNB-19) was 15.6 µM (inactive) and the GI50 (HOP-92) was 7.36 µM (inactive). The GI50 (SK-OV-3) was > 10 µM (inactive), the GI50 (HCT-15) was over 31.6 µM and the GI50 (RXF 393) was > 10 µM (inactive). The GI50 (U-251) was > 10 µM (inactive), the GI50 (CAKI-1) was 29.7 µM (inactive) and the GI50 (MOLT-4) was > 31.6 µM (inactive). The GI50 (SF-268) was 13.5 µM (inactive), the GI50 (ACHN) was 17.8 µM (inactive) and the GI50 (IGROV-1) was 21.9 µM (inactive). The GI50 (LOX IMVI) was > 31.6 µM (inactive), the GI50 (HL-60) was > 10 µM (inactive) and the GI50 (MDA-MB-435) was > 100 µM (inactive). For the same compound, the GI50 (OVCAR-3) was 23.2 µM (inactive), the GI50 (SF-295) was 13.7 µM (inactive) and the GI50 (UACC-62) was > 10 µM (inactive). The GI50 (NCI-H226) was 21.9 µM (inactive), the GI50 (MCF7) was > 76.2 µM (inactive) and the GI50 (CCRF-CEM) was > 10 µM (inactive). For the same compound, the GI50 (SK-MEL-5) was 16.3 µM (inactive), the GI50 (UO-31) was 22.6 µM (inactive) and the GI50 (NCI-H23) was > 20.2 µM (inactive). The GI50 (EKVX) was 16.6 µM (inactive), the GI50 (HOP-62) was 13.3 µM (inactive) and the GI50 (PC-3) was > 10 µM (inactive). The GI50 (KM12) was > 31.6 µM (inactive), the GI50 (SR) was > 31.6 µM (inactive) and the GI50 (TK-10) was 15.7 µM (inactive). For the same compound, the GI50 (786-0) was 25.1 µM (inactive), the GI50 (A549) was 30 µM (inactive) and the GI50 (SK-MEL-2) was 17.9 µM (inactive). The GI50 (HCT-116) was 21.3 µM (inactive), the GI50 (OVCAR-5) was > 31.6 µM (inactive) and the GI50 (A498) was 12.1 µM (inactive). For the same compound, the GI50 (NCI/ADR-RES) was 17.1 µM (inactive), the GI50 (HCC 2998) was > 10 µM (inactive) and the GI50 (SF-539) was 17.6 µM (inactive). The GI50 (Hs-578T) was 29.4 µM (inactive).
